Data from patent US20260151403A1, “NEK7 DEGRADERS AND METHODS OF USE THEREOF” (Captor Therapeutics S.A., priority 2022, published 2026).

Columns and labels:
[1] = biological target: T1, [NEK7]-[compound of formula (I)]-[CRBN/DDB1] complex (Homo sapiens, UniProt Q8TDX7+Q96SW2); experiment: AlphaLISA dose response ternary complex formation assay; format: binding; settings: 1 μM compound, normalized to maximum signal of Compound 2 (positive control) and DMSO background; for activation at 1 µM: read-out: Normalized AlphaLISA ternary complex average signal at 1 μM molecule
Procedure: The effect of the molecular glue compounds of the invention on the formation of a ternary complex composed of [NEK7]-[compound of formula (I)]-[CRBN/DDB1] was investigated with two methods: AlphaLISA dose response assay or HTRF ternary complex assay.
Two types of protein solution were prepared: • 200 nM biotinylated NEK7, 40 μg/ml AlphaScreen Streptavidin-coated Donor Beads in HBS (10 mM HEPES, 150 mM NaCL, pH 7.4) buffer with 0.1% Tween-20 and 1 mM DTT, • 200 nM 6×His-CRBN/Strep-DDB1, 40 μg/ml AlphaLISA Anti-6×His Acceptor beads in HBS buffer with 0.1% Tween-20 and 1 mM DTT.
The prepared solutions were incubated at room temperature for 30 min and then the solution containing the donor beads was mixed with the solution containing the acceptor beads.
The tested compounds were dispensed onto a white 384-well AlphaPlate 384 SW. DMSO was backfilled to all wells, resulting in a final DMSO content of 2%. Wells containing only DMSO served as background. Next, 10 μl of solution with donor and acceptor beads was added to the wells.
The plate was sealed with transparent film and shaken using a VibroTurbulator for 60 sec at room temperature, level 3. The plate was then spun down shortly (10 s, 1000 rcf, room temperature) and incubated at 25° C. for 30 min.
The read-out was performed with PerkinElmer Enspire Multimode Plate Reader (method for AlphaLISA 384-well low volume, Filterset: λexc=680 nm, λem=615 nm).
The results were analyzed as follows: • 1) an average of luminescence for background signal was calculated and used as a negative control; • 2) average of the maximum measured luminescence for Compound 2 was calculated and used as an internal positive control; • 3) raw luminescence values were normalized against positive and negative controls; • 4) Normalized responses to Compound 2 were determined.

[2] = biological target: T1, [NEK7]-[compound of formula (I)]-[CRBN/DDB1] complex; experiment: HTRF ternary complex assay; format: binding; settings: dose-response, 180 min at 25° C.; for EC50: read-out: HTRF ternary complex Average pEC50 by molecule (converted)
Procedure: The effect of the molecular glue compounds of the invention on the formation of a ternary complex composed of [NEK7]-[compound of formula (I)]-[CRBN/DDB1] was investigated.
Mix solution of proteins and reagents was prepared: • 24 nM NEK7, 52.8 nM 6×His-CRBN/Strep-DDB1, 3 nM of Streptavidin-Eu cryptate […] and 6.67 nM of Anti-6×his-d2 […] was prepared in PPI Europium detection buffer (Cisbio) with 1 mM DTT.
The tested compounds in dose-response were dispensed onto a white 384-well low volume plate (Greiner, 784075). DMSO was backfilled to all wells, resulting in a final DMSO content of 0.5%. Wells containing only DMSO served as background.
The plate was sealed with transparent film and shaken using a VibroTurbulator for 60 sec at level 3.
The plate was then spun down shortly (10 s, 1000 rcf) and incubated at 25° C. for 180 min.
The read-out was performed with plate reader (Pherastar, BMG Labtech) in time resolved fluorescence mode. Filterset: TR 337 665 620.
The results were analyzed as follows: • 1) an average of fluorescence for background signal was calculated and used as a negative control; • 2) raw fluorescence values for tested compounds were normalized against negative controls; • 3) saturation curve was fitted to specific binding with Hill slope model; • 4) EC50 and pEC50 values were determined.

NEK7-HiBiT protein = NEK7-HiBiT protein (Homo sapiens, UniProt Q8TDX7); experiment: NEK7-HiBiT degradation assay (Nano-Glo HiBiT Lytic Assay) in HEK293 NEK7-HiBiT cells; format: cell-based; settings: 24 h, conc. 0.1, 1 and 10 μM tested, concentration of the table values not stated, mean of 3 technical replicates
Procedure: HEK293 NEK7-HiBiT cells were generated using CRISPR-Cas9 system. HEK293 cells were transformed with pSpCas9-BB-2A-Puro v2.0 plasmid carrying gRNA targeting the N-terminus of NEK7 and ssODN template containing the HiBiT tag sequence with flanking homology sequences. Neon Transfection System (Thermo Fisher Scientific) was used for electroporation. HEK293 NEK7-HiBiT cells were cultured with DMEM Glutamax (Gibco) supplemented with 10% heat inactivated FBS (Gibco). After transfection the culture medium was changed to DMEM Glutamax with 10% heat-inactivated FBS and 1% Penicillin-Streptomycin (Biowest) supplemented with Puromycin (2 μg/ml; Invivogen) for clonal selection. In order to isolate single cell clones for further validation and analysis, limiting dilution cloning in 96-well plates was performed. When the single clones reached confluency, HiBiT Lytic Assay (Promega) was performed in order to identify HiBiT positive clones. The clone selected for further studies was verified and validated using genotyping and HiBiT Blotting (Promega).
Selected clone of HEK293 NEK7-HiBiT cells was maintained in the DMEM-Glutamax medium supplemented with 10% of heat-inactivated FBS (Gibco) and 1% of Penicillin-Streptomycin Solution 100x (Biowest) at 37° C., 5% CO2 and subcultured every 2-3 days.
For Nano-Glo HiBiT Lytic Assay HEK293 NEK7-HiBiT cells were seeded at the density 2×10^3 cells in triplicates in the 40 μL of growth medium per single well on 384 well plate (Greiner Bio-One). Compounds or DMSO were added to treatment plates using Echo555 Liquid Handler and incubated at 37° C., 5% CO2 for 24 hours. After incubation 40 μL of Nano-Glo HiBiT Lytic Reagent (prepared according to the manufacturer protocol) were added to 40 μL of the cell culture medium present in each well. The plate content was briefly mixed (460 rpm) on an orbital shaker to ensure cell lysis. The plate was left at RT protected from light for another 10 min to stabilize the luminescent signal. The luminescence signal was measured using CLARIOstar Multimode Plate Reader. Focus and gain were adjusted to DMSO treated cells. The results were calculated as the NEK7-HiBiT % relative to the DMSO control of 3 technical replicates relative to the DMSO control.
HEK293 NEK7-HiBiT cells were treated with the compounds (conc. 0.1, 1 and 10 μM) or DMSO for 24 h. After incubation with compounds NEK7-HiBiT degradation was measured as a luminescence signal using CLARIOstar Multimode Plate reader.
Additionally, compounds reducing NEK7-HiBiT protein level by >=50% at 0.1 μM, were also identified.

T1 sequence (Q8TDX7 whole entry): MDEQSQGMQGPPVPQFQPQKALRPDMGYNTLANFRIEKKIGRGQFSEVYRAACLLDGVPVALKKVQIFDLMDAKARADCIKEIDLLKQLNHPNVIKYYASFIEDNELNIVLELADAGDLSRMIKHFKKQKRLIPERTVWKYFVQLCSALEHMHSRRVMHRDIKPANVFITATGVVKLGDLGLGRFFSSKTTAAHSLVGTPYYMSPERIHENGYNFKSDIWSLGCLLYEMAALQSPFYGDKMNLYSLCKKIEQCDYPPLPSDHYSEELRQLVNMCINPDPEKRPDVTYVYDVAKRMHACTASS
T1 sequence (Q96SW2 whole entry): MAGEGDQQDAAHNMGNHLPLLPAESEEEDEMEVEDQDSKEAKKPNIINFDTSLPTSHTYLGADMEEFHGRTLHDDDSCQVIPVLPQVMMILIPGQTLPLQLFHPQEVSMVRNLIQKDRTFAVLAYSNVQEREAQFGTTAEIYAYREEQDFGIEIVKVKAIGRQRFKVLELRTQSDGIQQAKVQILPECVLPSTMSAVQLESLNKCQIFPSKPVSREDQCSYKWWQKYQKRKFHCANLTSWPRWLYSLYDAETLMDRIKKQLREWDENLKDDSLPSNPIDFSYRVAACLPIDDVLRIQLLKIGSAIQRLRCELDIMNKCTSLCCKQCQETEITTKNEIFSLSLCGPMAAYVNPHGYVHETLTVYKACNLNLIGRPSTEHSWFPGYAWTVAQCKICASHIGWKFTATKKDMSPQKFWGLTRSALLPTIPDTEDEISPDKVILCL
T1 sequence (Q16531 whole entry partner): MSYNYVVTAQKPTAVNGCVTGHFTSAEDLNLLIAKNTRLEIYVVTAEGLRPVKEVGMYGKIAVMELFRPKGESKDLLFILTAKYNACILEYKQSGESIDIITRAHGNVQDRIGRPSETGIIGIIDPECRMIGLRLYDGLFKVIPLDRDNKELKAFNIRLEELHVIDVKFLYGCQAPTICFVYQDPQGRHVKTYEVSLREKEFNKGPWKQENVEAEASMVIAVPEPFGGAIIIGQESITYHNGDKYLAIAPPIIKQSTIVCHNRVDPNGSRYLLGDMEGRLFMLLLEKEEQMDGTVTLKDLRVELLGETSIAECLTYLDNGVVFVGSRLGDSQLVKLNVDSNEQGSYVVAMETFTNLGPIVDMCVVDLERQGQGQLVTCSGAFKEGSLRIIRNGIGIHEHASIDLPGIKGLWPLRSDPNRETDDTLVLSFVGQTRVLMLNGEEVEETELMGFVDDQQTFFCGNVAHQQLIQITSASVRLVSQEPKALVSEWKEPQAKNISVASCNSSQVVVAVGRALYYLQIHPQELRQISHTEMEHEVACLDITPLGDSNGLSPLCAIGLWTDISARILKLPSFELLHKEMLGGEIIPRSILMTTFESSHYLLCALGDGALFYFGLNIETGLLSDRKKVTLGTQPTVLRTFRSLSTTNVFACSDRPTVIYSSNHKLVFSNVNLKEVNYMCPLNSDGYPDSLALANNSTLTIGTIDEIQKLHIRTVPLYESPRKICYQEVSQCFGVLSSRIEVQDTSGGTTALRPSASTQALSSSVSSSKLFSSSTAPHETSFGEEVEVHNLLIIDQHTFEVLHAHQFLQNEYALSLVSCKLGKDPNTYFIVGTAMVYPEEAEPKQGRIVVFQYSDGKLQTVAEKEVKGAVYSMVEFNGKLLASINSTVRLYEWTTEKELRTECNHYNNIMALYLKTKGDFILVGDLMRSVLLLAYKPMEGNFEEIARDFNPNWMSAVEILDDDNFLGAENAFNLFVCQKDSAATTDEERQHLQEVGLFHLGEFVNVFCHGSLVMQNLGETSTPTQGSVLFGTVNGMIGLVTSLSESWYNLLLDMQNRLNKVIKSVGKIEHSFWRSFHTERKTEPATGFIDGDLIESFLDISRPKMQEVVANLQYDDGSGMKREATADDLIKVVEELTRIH
Sequence of NEK7-HiBiT protein (Q8TDX7 whole entry): as the sequence (Q8TDX7 whole entry) above
Sequence of NEK7-HiBiT protein (Q96SW2 whole entry, further chain): as the sequence (Q96SW2 whole entry) above
Sequence of NEK7-HiBiT protein (Q16531 whole entry partner): as the sequence (Q16531 whole entry partner) above

| Normalized AlphaLISA ternary complex average signal at 1 μM molecule [1] | HTRF ternary complex Average pEC50 by molecule [2] | activation at 1 µM [1] | EC50 [2] | Compound | Levels of NEK7-HiBiT Protein (as a % of DMSO control) (NEK7-HiBiT protein) |
| --- | --- | --- | --- | --- | --- |
| B (Normalized activity > 20% and <80%) | ++++ (7.0 > pEC50 > 6.5) | – | – | CC(=O)NC1CCC(c2ccc3c(c2)CN(C2CCC(=O)NC2=O)C3=O)NC1 (single isomer, unassigned) [33 Isomer 2, N-(6-(2-(2,6-dioxopiperidin-3-yl)-1-oxoisoindolin-5-yl)piperidin-3-yl)acetamide] | B (Levels of NEK7-HiBiT Protein > 25% and ≤50%) |
| – | – | > 80% | 0.1 to 0.316 µM | O=C1CCC(N2Cc3cc(C4CCC(Cc5ccccc5)CN4)ccc3C2=O)C(=O)N1 (single isomer, unassigned) [35 Isomer 1, 3-(5-(5-benzylpiperidin-2-yl)-1-oxoisoindolin-2-yl)piperidine-2,6-dione] | B (Levels of NEK7-HiBiT Protein > 25% and ≤50%) |
| B (Normalized activity > 20% and <80%) | – | – | 0.316 to 1 µM | CC(C)C1CCC(c2ccc3c(c2)CN(C2CCC(=O)NC2=O)C3=O)NC1 (single isomer, unassigned) [55 Isomer 1, 3-(5-(5-isopropylpiperidin-2-yl)-1-oxoisoindolin-2-yl)piperidine-2,6-dione] | C (Levels of NEK7-HiBiT Protein > 50% and <75%) |
| A (Normalized activity > 80%) | +++ (6.5 > pEC50 > 6.0) | – | – | CC(C)C1CCC(c2ccc3c(c2)CN(C2CCC(=O)NC2=O)C3=O)NC1 (single isomer, unassigned) [55 Isomer 2, 3-(5-(5-isopropylpiperidin-2-yl)-1-oxoisoindolin-2-yl)piperidine-2,6-dione] | B (Levels of NEK7-HiBiT Protein > 25% and ≤50%) |
| D (Normalized activity < 10%) | – | – | > 3.16 µM | CCCCC1CCC(c2ccc3c(c2)CN(C2CCC(=O)NC2=O)C3=O)OC1 (single isomer, unassigned) [70 Isomer 1, 3-(5-(5-butyltetrahydro-2H-pyran-2-yl)-1-oxoisoindolin-2-yl)piperidine-2,6-dione] | D (Levels of NEK7-HiBiT Protein ≥ 75%) |
| A (Normalized activity > 80%) | – | – | 1 to 3.16 µM | CCCCC1CCC(c2ccc3c(c2)CN(C2CCC(=O)NC2=O)C3=O)OC1 (single isomer, unassigned) [70 Isomer 2, 3-(5-(5-butyltetrahydro-2H-pyran-2-yl)-1-oxoisoindolin-2-yl)piperidine-2,6-dione] | B (Levels of NEK7-HiBiT Protein > 25% and ≤50%) |
| D (Normalized activity < 10%) | – | – | > 3.16 µM | O=C1CCC(N2Cc3cc(C4CCC(c5ccccc5)CO4)ccc3C2=O)C(=O)N1 (single isomer, unassigned) [74 Isomer 1, 3-(1-oxo-5-(5-phenyltetrahydro-2H-pyran-2-yl)isoindolin-2-yl)piperidine-2,6-dione] | D (Levels of NEK7-HiBiT Protein ≥ 75%) |
| A (Normalized activity > 80%) | – | – | 0.1 to 0.316 µM | O=C1CCC(N2Cc3cc(C4CCC(c5ccccc5)CO4)ccc3C2=O)C(=O)N1 (single isomer, unassigned) [74 Isomer 2, 3-(1-oxo-5-(5-phenyltetrahydro-2H-pyran-2-yl)isoindolin-2-yl)piperidine-2,6-dione] | A (Levels of NEK7-HiBiT Protein ≤ 25%) |
| – | – | > 80% | 0.1 to 0.316 µM | O=C1CCC(N2Cc3cc(-c4ccc5ccccc5n4)ccc3C2=O)C(=O)N1 (stereo not drawn) [5(2), 3-(1-oxo-5-(quinolin-2-yl)isoindolin-2-yl)piperidine-2,6-dione] | B (Levels of NEK7-HiBiT Protein > 25% and ≤50%) |
| – | – | > 80% | 0.1 to 0.316 µM | O=C1CCC(N2Cc3cc(-c4cc5ccccc5cn4)ccc3C2=O)C(=O)N1 (stereo not drawn) [6(2), 3-(5-(isoquinolin-3-yl)-1-oxoisoindolin-2-yl)piperidine-2,6-dione] | B (Levels of NEK7-HiBiT Protein > 25% and ≤50%) |
| – | – | > 80% | 0.1 to 0.316 µM | CC(=O)Nc1ccc(-c2ccc3c(c2)CN(C2CCC(=O)NC2=O)C3=O)nc1 (stereo not drawn) [7(2), N-(6-(2-(2,6-dioxopiperidin-3-yl)-1-oxoisoindolin-5-yl)pyridin-3-yl)acetamide] | B (Levels of NEK7-HiBiT Protein > 25% and ≤50%) |
| – | – | > 80% | < 0.1 µM | O=C1CCC(N2C(=O)c3ccc(-c4ccccn4)c4cccc2c34)C(=O)N1 (stereo not drawn) [23(2), 3-(2-oxo-5-(pyridin-2-yl)benzo[cd]indol-1 (2H)-yl)piperidine-2,6-dione] | B (Levels of NEK7-HiBiT Protein > 25% and ≤50%) |
| – | – | > 80% | 0.1 to 0.316 µM | CC1c2cc(-c3ccccn3)ccc2C(=O)N1C1CCC(=O)NC1=O (stereo not drawn) [24(2), 3-(3-methyl-1-oxo-5-(pyridin-2-yl)isoindolin-2-yl)piperidine-2,6-dione] | A (Levels of NEK7-HiBiT Protein ≤ 25%) |

| Compound | Normalized AlphaLISA ternary complex average signal at 1 μM molecule [1] | HTRF ternary complex Average pEC50 by molecule [2] | activation at 1 µM [1] | EC50 [2] | Levels of NEK7-HiBiT Protein (as a % of DMSO control) (NEK7-HiBiT protein) |
| --- | --- | --- | --- | --- | --- |
| O=C1CCC(N2Cc3cc(-c4ccc(C(F)(F)F)cn4)ccc3C2=O)C(=O)N1 (stereo not drawn) [16(2), 3-(1-oxo-5-(5-(trifluoromethyl)pyridin-2-yl)isoindolin-2-yl)piperidine-2,6-dione] | – | – | > 80% | 0.316 to 1 µM | A (Levels of NEK7-HiBiT Protein ≤ 25%) |
